According to patent publication US20040106582A1, “Use of mglur5 antagonists for the treatment of pruritic conditions” (priority 2001, published 2004):

Assays:
[1] = test system: magnesium deficiency-induced dermatosis in rat; test: model of magnesium deficiency-induced dermatosis in rat; format: in vivo; settings: male hairless rats on low-magnesium diet, oral treatment at 6 mg/kg/day, 5 consecutive days
Description: Activity of mGluR5 antagonists as antipruritics according to the invention is evidenced for example in a model of magnesium deficiency-induced dermatosis in rat. This dermatosis is characterised by a transient erythematous maculopapular rash associated with a severe generalised pruritus. The animals scratch and bite themselves causing excoriations and wounds on the head and trunk (Neckermann G., Bavandi A., Meingassner J. G., Br. J. Dermatol; 2000; 142: 669-679). According to this model, male hairless rats (Ico:OFA hr/hr) obtained from Iffa Credo (Lyon, France) at an age of 3 weeks are maintained with a diet low in magnesium (C10350, Altromin, Lage, Germany) and demineralised water. After onset of symptoms, the test compound is applied orally to 5 rats per group on 5 consecutive days. Control animals are treated similarly with the vehicle alone. Efficacy is assessed by clinical examination and semiquantitative assessment of skin lesions. The intensity and extend of the erythematous maculopapular rash is scored with 0 (not present) to 4 (most severe changes, involvement of the whole trunk). The intensity of pruritus is evaluated by the scoring of excoriations at the head, shoulders, lateral abdomen/flanks and caudal dorsal trunk with 0 (not present), 1 (few lesions) or […] (numerous lesions) resulting in a combined maximal score of 12 per animal. […]

[2] = test system: itch induced in mice by Compound 48/80; test: model of itch induced in mice by injection of the pruritic agent Compound 48/80; format: in vivo; settings: C57BL/6 mice, 30 μg/10 μl s.c. Compound 48/80, oral administration of 3-30 mg/kg and 10-100 mg/kg, 30 min prior, observed 30 minutes
Description: Experiments are carried out on adult female and male C57BL/6 mice (25-30 g). Individual mice receive the test compound p.o. (a vehicle alone for control animals) 30 min. prior to subcutaneous injections of the above mentioned pruritic agent into the dorsal neck region and are then placed into a clear Perspex box. A maximum of 3 mice are closely and continuously observed by an experimenter for 30 minutes following injection. ‘Scratching episodes’ are defined as scratching focused at the site of injection using the hind paws, and differentiated from grooming behaviour that also involves licking and is systematically directed over all body regions. The duration of the itch behaviour is recorded by using a keyboard linked to three stop-clocks.

SMILES	inflammatory skin reddening and infiltration [1]	signs of pruritus (scoring of excoriations) [1]	duration of scratching episodes induced by the pruritic agent [2]
Cc1cccc(C#Cc2cccnc2)n1 [2-[2-(pyridin-3-yl)ethynyl]-6-methyl-pyridine]	is not inhibited	inhibits signs of pruritus	
Cc1cccc(C#Cc2ccccc2)n1 [2-methyl-6-phenylethynyl-pyridine]			significantly decreases
